Data as given in patent US7301033B2, “PPAR-activating compound” (Kowa Co., Ltd., priority 2005, dated 2007).

Experiments:
Format in all cases: cell-based
[1] = biological target: T1, human PPARα (Homo sapiens, UniProt Q07869); test: Gal4-human PPARα chimera luciferase transfection assay in COS cells
T1 construct: 166th to 467th amino acids of human PPARα; expressed in transfected cells; host or cells: COS cells (African green monkey kidney)
T1 sequence (Q07869 166-467): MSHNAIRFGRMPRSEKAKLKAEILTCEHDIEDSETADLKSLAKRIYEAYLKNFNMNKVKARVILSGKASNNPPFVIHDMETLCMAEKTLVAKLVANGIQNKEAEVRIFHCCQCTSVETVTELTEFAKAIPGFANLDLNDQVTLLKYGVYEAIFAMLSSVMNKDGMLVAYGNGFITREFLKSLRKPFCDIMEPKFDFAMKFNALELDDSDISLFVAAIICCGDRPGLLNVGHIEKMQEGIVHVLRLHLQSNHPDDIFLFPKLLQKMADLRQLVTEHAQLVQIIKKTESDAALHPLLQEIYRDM
Procedure: (§1) The PPAR receptor-activating effect of the compound of the present invention represented by the formula (1) was measured by a method described below (Proc. Natl. Acad. Sci., 92, pp 7297-7301, 1995; Journal of Lipid Research, 40, pp 2099-2110, 1999; and Proc. Natl. Acad. Sci, 98, pp 5306-5311, 2001).
(§2) All the transfection assays were conducted using African green monkey kidney-derived cell line COS cells. The COS cells were cultured at 5% CO2 concentration using a DMEM medium containing 10% fetal bovine serum, glutamic acid, and an antibiotic as a culture solution.
(§3) Gal4-human PPARs chimeric constructs which were fused the DNA-binding region of yeast transcription factor Gal4 with the ligand-binding region of human PPARs were used as an expression vector. A chimera where 1st to 147th amino acids of the Gal4 transcription factor were fused with 166th to 467th amino acids of human PPARα, with 182nd to 505th amino acids of human PPARγ2, or with 137th to 441st amino acids of human PPARδ was used as the chimera for each isoform. A reporter vector used was firefly luciferase whose promoter region contains five Gal4 recognition sequences. The plasmids were transfected into the cells by a method using Lipofectamine. In addition, a β-galactosidase expression vector was used as an internal standard.
(§4) After the transfection into the cells, the medium was substituted with a DMEM medium (containing 0.2% serum) supplemented with the compound, in which the cells were then cultured for additional 16 hours. Thereafter, luciferase activity and β-galactosidase activity in the cell lysate were measured.
(§5) In the present experiment, dimethyl sulfoxide (DMSO) was used in the dissolution and dilution of the compound. When the cells were treated, the DMSO concentration in the DMEM medium (containing 0.2% serum) was adjusted to 0.1%.

[2] = biological target: T2, human PPARγ2 (Homo sapiens, UniProt P37231); test: Gal4-human PPARγ2 chimera luciferase transfection assay in COS cells; details: compound added at 1 μM, luciferase activity with rosiglitazone 1 μM given as 10.0, 16 hours
T2 construct: with 182nd to 505th amino acids of human PPARγ2; expressed in transfected cells; host or cells: COS cells (African green monkey kidney)
T2 sequence (P37231 182-505): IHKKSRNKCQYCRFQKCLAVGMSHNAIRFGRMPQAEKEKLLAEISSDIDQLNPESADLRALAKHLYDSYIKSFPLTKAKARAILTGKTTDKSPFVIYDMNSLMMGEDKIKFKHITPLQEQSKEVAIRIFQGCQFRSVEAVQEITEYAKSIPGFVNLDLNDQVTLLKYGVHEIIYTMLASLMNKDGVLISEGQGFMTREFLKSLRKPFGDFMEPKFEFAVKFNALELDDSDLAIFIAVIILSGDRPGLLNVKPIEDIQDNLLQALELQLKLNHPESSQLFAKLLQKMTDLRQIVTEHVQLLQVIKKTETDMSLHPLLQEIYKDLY
Procedure: as §1, §2, §3, §4, §5

[3] = biological target: T3, human PPARδ (Homo sapiens, UniProt Q03181); test: Gal4-human PPARδ chimera luciferase transfection assay in COS cells; details: compound added at 1 μM, luciferase activity with GW501516 1 μM given as 10.0, 16 hours
T3 construct: with 137th to 441st amino acids of human PPARδ; expressed in transfected cells; host or cells: COS cells (African green monkey kidney)
T3 sequence (Q03181 137-441): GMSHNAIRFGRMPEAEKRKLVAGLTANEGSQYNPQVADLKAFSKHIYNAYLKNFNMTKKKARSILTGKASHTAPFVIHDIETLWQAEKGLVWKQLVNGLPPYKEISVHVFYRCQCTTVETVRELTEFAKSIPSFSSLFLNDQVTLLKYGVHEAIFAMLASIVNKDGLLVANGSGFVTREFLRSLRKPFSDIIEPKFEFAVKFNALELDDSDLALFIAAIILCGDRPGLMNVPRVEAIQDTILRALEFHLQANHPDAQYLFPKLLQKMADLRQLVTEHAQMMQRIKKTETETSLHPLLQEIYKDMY
Procedure: as §1, §2, §3, §4, §5

[4] = compound added at 1 μM, luciferase activity with WY14643 10 μM given as 10.0, 16 hours

| hPPAR; Relative activity α [1, 4] | hPPAR; Relative activity γ [2] | hPPAR; Relative activity δ [3] | hPPAR; Relative activity α ([1]; positive compound at 10 μM, its luciferase activity given as 10.0, 16 hours) | Compound |
| --- | --- | --- | --- | --- |
| 16.2 | 1.4 | 0.2 |  | CCN(CCCCSc1ccccc1C(=O)O)c1nc2ccccc2s1 [Example 108, 2-[4-[N-(Benzothiazol-2-yl)-N-ethyl]aminobutylthio]benzoic acid] |
| 20.3 | 2.1 | 0.9 |  | CCCCCCCCN(CCCCCSc1ccccc1C(=O)O)c1nc2ccccc2o1 [Example 102, 2-[5-[N-(Benzoxazol-2-yl)-N-n-octyl]aminopentylthio]benzoic acid] |
| 14.7 | 3.3 | 0.7 |  | O=C(O)c1ccccc1SCCCCCN(Cc1ccc(Cl)cc1)c1nc2ccccc2o1 [Example 98, 2-[5-[N-(Benzoxazol-2-yl)-N-4-chlorobenzyl]aminopentylthio]benzoic acid] |
|  |  |  | 10.0 | Cc1cccc(Nc2cc(Cl)nc(SCC(=O)O)n2)c1C [WY14643, reference compound] |
| 16.8 | 2.2 | 0.3 |  | CCN(CCCCCSc1ccccc1C(=O)O)c1nc2ccccc2o1 [Example 99, 2-[5-[N-(Benzoxazol-2-yl)-N-ethyl]aminopentylthio]benzoic acid] |
| 12.1 | 0.8 | 0.2 |  | CN(CCCCSc1ccccc1C(=O)O)c1nc2ccccc2s1 [Example 109, 2-[4-[N-(Benzothiazol-2-yl)-N-methyl]aminobutylthio]benzoic acid] |
| 11.0 | 2.0 | 0.2 |  | CCCN(CCCCSc1ccccc1C(=O)O)c1nc2ccccc2s1 [Example 110, 2-[4-[N-(Benzothiazol-2-yl)-N-n-propyl]aminobutylthio]benzoic acid] |
| 12.4 | 2.0 | 0.2 |  | CCCN(CCCCCSc1ccccc1C(=O)O)c1nc2ccccc2o1 [Example 103, 2-[5-[N-(Benzoxazol-2-yl)-N-n-propyl]aminopentylthio]benzoic acid] |
| 12.2 | 2.3 | 0.2 |  | CCCCCCCCN(CCCCCS(=O)(=O)c1ccccc1C(=O)O)c1nc2ccccc2o1 [Example 122, 2-[5-[N-(Benzoxazol-2-yl)-N-n-octyl]aminopentylsulfonyl]benzoic acid] |

Further lines, the compound ahead of its results:

| Compound | hPPAR; Relative activity α [1, 4] | hPPAR; Relative activity γ [2] | hPPAR; Relative activity δ [3] | hPPAR; Relative activity α ([1]; positive compound at 10 μM, its luciferase activity given as 10.0, 16 hours) |
| --- | --- | --- | --- | --- |
| CCCCCCN(CCCCSc1ccccc1C(=O)O)c1nc2ccccc2o1 [Example 93, 2-[4-[N-(Benzoxazol-2-yl)-N-n-hexyl]aminobutylthio]benzoic acid] | 12.3 | 4.1 | 0.4 |  |
| O=C(O)c1ccccc1OCCCCN(CCOc1ccccc1)c1nc2ccccc2o1 [Example 52, 2-[4-[N-(Benzoxazol-2-yl)-N-2-phenoxyethyl]aminobutoxy]benzoic acid] | 13.8 | 2.1 | 0.1 |  |
| CCCCCCCCN(CCCCSc1ccccc1C(=O)O)c1nc2ccccc2o1 [Example 94, 2-[4-[N-(Benzoxazol-2-yl)-N-n-octyl]aminobutylthio]benzoic acid] | 12.0 | 3.5 | 1.4 |  |
| CCCCCCCCN(CCSc1ccccc1C(=O)O)c1nc2ccccc2o1 [Example 78, 2-[2-[N-(Benzoxazol-2-yl)-N-n-octyl]aminoethylthio]benzoic acid] | 20.8 | 2.1 | 0.2 |  |
| CCCCCCCCN(CCCOc1ccccc1C(=O)O)c1nc2ccccc2o1 [Example 27, 2-[3-[N-(Benzoxazol-2-yl)-N-n-octyl]aminopropoxy]benzoic acid] | 13.7 | 1.9 | 0.1 |  |
| CC(C)N(CCCCCSc1ccccc1C(=O)O)c1nc2ccccc2o1 [Example 70, 2-[5-[N-(Benzoxazol-2-yl)-N-isopropyl]aminopentylthio]benzoic acid] | 12.4 | 1.4 | 0.2 |  |
| CCCCCCCN(CCCCOc1cccc(C(=O)O)c1)c1nc2ccccc2o1 [Example 46, 3-[4-[N-(Benzoxazol-2-yl)-N-n-heptyl]aminobutoxy]benzoic acid] | 16.5 | 1.9 | 0.3 |  |
| O=C(O)c1ccccc1SCCN(Cc1ccccc1[N+](=O)[O-])c1nc2ccccc2o1 [Example 74, 2-[2-[N-(Benzoxazol-2-yl)-N-2-nitrobenzyl]aminoethylthio]benzoic acid] | 10.2 | 0.7 | 0.3 |  |
| O=C(O)c1cccc(OCCCCN(CCOc2ccc(Cl)cc2)c2nc3ccccc3o2)c1 [Example 45, 3-[4-[N-(Benzoxazol-2-yl)-N-2-(4-chloropheoxyl)ethyl]aminobutoxy]benzoic acid] | 12.3 | 3.5 | 0.6 |  |
| Cc1c(CN(CCSc2ccccc2C(=O)O)c2nc3ccccc3o2)cccc1[N+](=O)[O-] [Example 73, 2-[2-[N-(Benzoxazol-2-yl)-N-(2-methyl-3-nitrobenzyl) ]aminoethylthio]benzoic acid] | 11.2 | 1.1 | 0.2 |  |
| CCCCCN(CCCCOc1cccc(C(=O)O)c1)c1nc2ccccc2o1 [Example 47, 3-[4-[N-(Benzoxazol-2-yl)-N-n-pentyl]aminobutoxy]benzoic acid] | 10.4 | 1.2 | 0.3 |  |
| O=C(O)c1ccccc1SCCN(CCCOc1ccccc1)c1nc2ccccc2o1 [Example 80, 2-[2-[N-(Benzoxazol-2-yl)-N-3-phenoxypropyl]aminoethylthio]benzoic acid] | 17.8 | 1.6 | 0.2 |  |
| CCCCCCCN(CCCOc1cccc(C(=O)O)c1)c1nc2ccccc2o1 [Example 19, 3-[3-[N-(Benzoxazol-2-yl)-N-n-heptyl]aminopropoxy]benzoic acid] | 15.1 | 1.7 | 0.5 |  |
| O=C(O)c1cccc(OCCCCN(CCCOc2ccccc2)c2nc3ccccc3o2)c1 [Example 48, 3-[4-[N-(Benzoxazol-2-yl)-N-3-phenoxypropyl]aminobutoxy]benzoic acid] | 16.0 | 2.1 | 0.2 |  |
